Source: ChEMBL document CHEMBL1144818, “Antifouling activity of a dibrominated cyclopeptide from the marine sponge Geodia barretti” (J Nat Prod, 2008)
Active and inactive are the calls of the source. The rule behind the calls is not given here.

Key:
[1] = target: 5-hydroxytryptamine receptor 4 (Homo sapiens) (UniProt Q13639); assay: Binding affinity to human 5HT4 receptor expressed in HEK293 cells; format: cell-based
[2] = target: T1, 5-hydroxytryptamine receptor 2C (Homo sapiens) (UniProt P28335); assay: Binding affinity to human 5HT2C receptor expressed in HEK293 cells; format: cell-based
T1 sequence (whole entry): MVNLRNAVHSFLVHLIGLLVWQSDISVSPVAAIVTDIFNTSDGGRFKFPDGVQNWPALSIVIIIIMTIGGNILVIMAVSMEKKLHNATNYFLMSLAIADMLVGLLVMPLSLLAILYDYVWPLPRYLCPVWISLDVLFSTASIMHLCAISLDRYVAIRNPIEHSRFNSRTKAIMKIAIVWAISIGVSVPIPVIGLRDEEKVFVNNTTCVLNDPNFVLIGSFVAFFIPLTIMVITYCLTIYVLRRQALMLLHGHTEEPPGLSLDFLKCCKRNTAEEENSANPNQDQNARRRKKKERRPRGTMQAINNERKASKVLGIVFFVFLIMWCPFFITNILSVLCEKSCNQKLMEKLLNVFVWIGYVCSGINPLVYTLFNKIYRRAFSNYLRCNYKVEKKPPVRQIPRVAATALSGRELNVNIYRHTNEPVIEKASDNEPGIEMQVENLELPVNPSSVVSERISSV

[3] = tested on: Amphibalanus improvisus; assay: Reversal of antifouling activity in Balanus improvisus assessed as inhibition of cyprid larvae settlement at 10 uM after 48 hrs measured after transferring to fresh sea water; format: functional, organism-based
[4] = target: 5-hydroxytryptamine receptor 2A (Homo sapiens) (UniProt P28223); assay: Binding affinity to human 5HT2A receptor expressed in HEK293 cells; format: cell-based
Chain of 5-hydroxytryptamine receptor 2A (Homo sapiens) (P28223 whole entry): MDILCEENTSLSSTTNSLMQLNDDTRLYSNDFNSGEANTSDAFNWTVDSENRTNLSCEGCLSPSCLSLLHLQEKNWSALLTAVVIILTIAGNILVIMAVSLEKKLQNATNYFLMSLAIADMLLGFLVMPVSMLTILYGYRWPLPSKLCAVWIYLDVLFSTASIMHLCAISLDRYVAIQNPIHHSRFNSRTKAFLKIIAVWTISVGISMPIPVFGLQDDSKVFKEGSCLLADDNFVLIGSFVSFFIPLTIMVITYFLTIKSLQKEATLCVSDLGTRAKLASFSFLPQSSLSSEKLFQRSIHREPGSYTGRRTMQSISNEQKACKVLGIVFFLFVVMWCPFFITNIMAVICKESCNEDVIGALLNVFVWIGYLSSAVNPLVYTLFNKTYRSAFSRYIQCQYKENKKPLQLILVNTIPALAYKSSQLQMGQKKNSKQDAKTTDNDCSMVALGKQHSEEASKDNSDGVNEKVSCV

[5] = tested on: Amphibalanus improvisus; assay: Antifouling activity in Balanus improvisus assessed as inhibition of cyprid larvae settlement; format: functional, organism-based
[6] = target: 5-hydroxytryptamine receptor 4 (Homo sapiens) (UniProt Q13639); assay: Binding affinity to human 5HT4 receptor expressed in HEK293 cells below 10 uM; format: cell-based

Chain of 5-hydroxytryptamine receptor 4 (Homo sapiens) (Q13639 whole entry): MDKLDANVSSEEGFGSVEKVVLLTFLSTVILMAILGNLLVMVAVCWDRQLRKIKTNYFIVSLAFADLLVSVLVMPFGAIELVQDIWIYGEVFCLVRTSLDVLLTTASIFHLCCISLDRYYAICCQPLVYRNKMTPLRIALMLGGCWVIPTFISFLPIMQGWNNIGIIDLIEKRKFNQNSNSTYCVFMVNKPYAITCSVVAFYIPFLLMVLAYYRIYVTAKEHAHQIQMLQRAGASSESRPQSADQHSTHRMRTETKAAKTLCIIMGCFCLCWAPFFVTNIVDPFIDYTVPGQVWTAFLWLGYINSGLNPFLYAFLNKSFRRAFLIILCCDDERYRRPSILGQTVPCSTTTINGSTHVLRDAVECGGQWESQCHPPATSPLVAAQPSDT

Activity [1]	Activity [2]	Activity [4]	Activity [6]	SMILES	Activity [3]	EC50 [5] [nM]
inactive	inactive	inactive		N=C(N)NCCC[C@@H]1NC(=O)C(C(O)(c2c[nH]c3cc(Br)ccc23)c2c(Br)ccc3c(=O)o[nH]c23)NC1=O (stereo partly specified)	Active	15
			Active	N=C(N)NCCC[C@@H]1NC(=O)C(Cc2c[nH]c3cc(Br)ccc23)NC1=O (stereo partly specified)		
